Assay results published in patent US20200354327A1, “COMPOUND HAVING STAT3 INHIBITORY ACTIVITY AND USE THEREOF” (CYTUS H&B CO., LTD., priority 2017, published 2020).

What was measured:
STAT3 [1] = target: T1, STAT3 (Homo sapiens, UniProt P40763); assay: Western blot in HDLM-2 cells; format: cell-based; parameters: endogenous in cells; host or cells: L540, HDLM-2, U87-MG, MDA-MB-231, further human glioblastoma and breast cancer lines
Method: (§1) The human cancer cell lines used in the experiment were U87-MG (human malignant glioblastoma) and MDA-MB-231 (human malignant breast cancer) cell lines, and various kinds of human-derived blood and solid cancer cells including these human cancer cell lines were cultured as previously described (Jung J E, et al. FASEB J. 19, 1296-1298 (2005)). The human Hodgkin lymphoma cancer cell lines L540 and HLDM-2 used in the experiment were obtained from the German Collection of Microorganism and Cell Cultures (DSMZ, Germany) and cultured using RPMI 1640 medium containing 20% FBS in a 5% CO2 incubator at a temperature of 37° C.
(§2) Western blot analysis was performed (Jung J E, et al. FASEB J. 19, 1296-1298 (2005)). The cells were washed two times with PBS and suspended in the lysate (50 mM Tris-HCl, pH 7.4, 350 mM NaCl, 1% Triton X-100, 0.5% Nonidet P-40, 10% glycerol, 0.1% SDS, 1 mM EDTA, 1 mM EGTA, 1 mM Na3VO4, 1 mM PMSF, protease and phosphorylation inhibitor) and the cell membrane and nuclear membrane were crushed to lyse the cells. The insoluble protein fraction was removed by centrifugation, and the supernatant was mixed with SDS electrophoresis buffer and electrophoresis (SDS-PAGE) was performed to detect the protein with the desired antibody and to confirm the protein expression level.

JAK3 = target: T2, JAK3 (Homo sapiens, UniProt P52333); assay: Western blot of upper signaling in L540 cells: JAK3; format: cell-based
T2 construct: endogenous in cells; host or cells: L540
T2 sequence (P52333 1-1124): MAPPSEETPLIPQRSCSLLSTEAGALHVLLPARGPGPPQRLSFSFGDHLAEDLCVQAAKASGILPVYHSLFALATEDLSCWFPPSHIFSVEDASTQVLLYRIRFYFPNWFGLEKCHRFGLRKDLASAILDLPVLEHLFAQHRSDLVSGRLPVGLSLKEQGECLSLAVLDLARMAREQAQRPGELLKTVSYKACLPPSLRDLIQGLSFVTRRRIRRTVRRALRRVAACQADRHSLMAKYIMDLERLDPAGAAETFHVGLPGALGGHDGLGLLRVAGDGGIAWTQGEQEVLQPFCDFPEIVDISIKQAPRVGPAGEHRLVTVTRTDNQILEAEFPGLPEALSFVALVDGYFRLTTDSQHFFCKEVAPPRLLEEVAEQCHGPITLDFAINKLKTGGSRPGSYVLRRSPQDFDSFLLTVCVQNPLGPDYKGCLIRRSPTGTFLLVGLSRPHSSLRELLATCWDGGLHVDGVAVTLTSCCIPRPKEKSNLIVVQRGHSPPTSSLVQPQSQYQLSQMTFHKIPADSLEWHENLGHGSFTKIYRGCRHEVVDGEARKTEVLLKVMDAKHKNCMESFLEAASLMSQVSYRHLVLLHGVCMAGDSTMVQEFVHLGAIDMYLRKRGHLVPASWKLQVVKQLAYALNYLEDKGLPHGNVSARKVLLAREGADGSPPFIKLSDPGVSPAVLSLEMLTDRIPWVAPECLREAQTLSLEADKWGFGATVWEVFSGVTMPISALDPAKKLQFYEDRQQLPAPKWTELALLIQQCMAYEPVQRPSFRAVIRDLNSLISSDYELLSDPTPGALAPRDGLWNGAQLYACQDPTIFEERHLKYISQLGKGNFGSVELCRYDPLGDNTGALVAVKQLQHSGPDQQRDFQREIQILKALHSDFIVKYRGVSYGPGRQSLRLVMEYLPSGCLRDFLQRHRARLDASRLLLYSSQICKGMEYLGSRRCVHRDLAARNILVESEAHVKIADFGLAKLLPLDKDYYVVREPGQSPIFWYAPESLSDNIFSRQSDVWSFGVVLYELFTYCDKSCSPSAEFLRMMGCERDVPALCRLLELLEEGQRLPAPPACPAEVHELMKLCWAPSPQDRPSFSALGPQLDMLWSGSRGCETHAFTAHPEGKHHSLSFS
Method: as §1, §2

SOCS3 = assay: Western blot of SOCS3 expression in L540 cells; format: cell-based, human
Method: as §1, §2

ERK signaling process = assay: Western blot of signaling in L540 cells: ERK; format: cell-based, human
Method: as §1, §2

STAT3 [2] = target: T1, STAT3; assay: Western blot in Hodgkin lymphoma cell line L540; format: cell-based; parameters: endogenous in cells; host or cells: L540, HDLM-2, U87-MG, MDA-MB-231, further human glioblastoma and breast cancer lines; settings: L540 cells
Method: as §1, §2

Src family kinase Lyn = target: T3, Src family kinase Lyn (Homo sapiens, UniProt P07948); assay: Western blot of signaling in L540 cells: Lyn; format: cell-based
T3 construct: endogenous in cells; host or cells: L540
T3 sequence (P07948 whole entry): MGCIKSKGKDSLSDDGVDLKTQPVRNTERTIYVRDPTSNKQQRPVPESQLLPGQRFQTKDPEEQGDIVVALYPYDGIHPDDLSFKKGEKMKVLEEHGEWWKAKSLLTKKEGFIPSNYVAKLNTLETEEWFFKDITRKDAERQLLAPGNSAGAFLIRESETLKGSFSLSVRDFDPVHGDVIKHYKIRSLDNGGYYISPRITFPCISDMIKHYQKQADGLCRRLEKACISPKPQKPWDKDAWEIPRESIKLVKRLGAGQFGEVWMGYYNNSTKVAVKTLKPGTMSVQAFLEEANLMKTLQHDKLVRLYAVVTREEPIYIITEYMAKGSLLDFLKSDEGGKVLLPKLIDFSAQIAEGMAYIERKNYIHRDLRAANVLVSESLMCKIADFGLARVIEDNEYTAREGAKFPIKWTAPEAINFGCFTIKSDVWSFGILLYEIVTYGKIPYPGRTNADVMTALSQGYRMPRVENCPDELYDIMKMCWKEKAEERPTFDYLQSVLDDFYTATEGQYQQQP
Method: as §1, §2

STAT92E = assay: Drosophila cell luciferase assay (10XSTAT92E-luciferase reporter); format: cell-based; settings: activated by the ligand upd or Hop
Method: Drosophila cells (S2-NP, 24×3) used in the experiment were cultured as previously described (Kim B H, et al. Mol Cancer Ther. 7, 2672-2680 (2008)). S2-NP (Drosophila Schneider cell) cells were Drosophila-derived macrophage-like cells and were cultured in Schneider's medium. 24×3 cells were cell lines stably expressed by inserting 10XSTAT92E-luciferase and PolIII-Renilla luciferase-labeled plasmid DNA as reporter constructs into S2-NP cells and were cultured in a medium prepared by adding […] of geneticin to the same medium as that for S2-NP. S2-NP cells in which unpaired (upd) or HOPT^Tum-l as a ligand was expressed and 24×3 cells constructed with reporter constructs were mixed at a constant ratio and cultured for 24 hours in the presence of a compound, the expression level of STAT92E was measured using a luminometer, and the inhibition effect was compared with that of the DMSO-treated group.

T1 sequence (P40763 whole entry): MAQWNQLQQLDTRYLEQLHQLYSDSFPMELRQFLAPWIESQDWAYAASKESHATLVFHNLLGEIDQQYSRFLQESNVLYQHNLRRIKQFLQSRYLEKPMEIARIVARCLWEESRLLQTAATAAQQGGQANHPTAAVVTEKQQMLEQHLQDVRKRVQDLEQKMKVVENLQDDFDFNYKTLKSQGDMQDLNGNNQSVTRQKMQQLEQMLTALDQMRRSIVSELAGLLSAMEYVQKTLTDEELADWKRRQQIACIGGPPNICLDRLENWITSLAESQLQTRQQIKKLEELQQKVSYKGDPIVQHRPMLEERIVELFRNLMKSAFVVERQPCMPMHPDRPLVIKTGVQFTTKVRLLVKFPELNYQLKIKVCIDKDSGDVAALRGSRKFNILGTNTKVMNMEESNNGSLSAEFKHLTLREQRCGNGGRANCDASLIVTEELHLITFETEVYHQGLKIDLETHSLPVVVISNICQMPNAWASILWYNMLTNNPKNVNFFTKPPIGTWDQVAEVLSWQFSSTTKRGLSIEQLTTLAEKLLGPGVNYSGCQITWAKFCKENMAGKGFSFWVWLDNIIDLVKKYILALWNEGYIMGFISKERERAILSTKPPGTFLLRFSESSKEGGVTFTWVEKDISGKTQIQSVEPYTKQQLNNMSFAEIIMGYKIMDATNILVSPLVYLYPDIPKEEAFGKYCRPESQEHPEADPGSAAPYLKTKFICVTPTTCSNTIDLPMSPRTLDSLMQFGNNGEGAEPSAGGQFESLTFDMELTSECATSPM

For `CC(C)(C)c1nc(COc2cccc([N+](=O)[O-])c2)no1` [ODZ17690, 5-tert-butyl-3-(3-nitro-phenoxymethyl)-[1,2,4]oxadiazole], the “phosphorylation of tyrosine residue 705 of STAT3” value (STAT3 [1]) was “selectively inhibited phosphorylation of tyrosine residue 705 of STAT3”, the “inhibitory action on JAK3” value (JAK3) was “weak inhibitory action” and the “expression of SOCS3” value (SOCS3) was “effectively inhibited”. The “inhibitory action on ERK signaling process” value (ERK signaling process) was “did not exert an inhibitory action”, the “phosphorylation of tyrosine residue 705 of STAT3” value (STAT3 [2]) was “effectively inhibited the phosphorylation of tyrosine residue 705 of STAT3” and the “selective inhibitory action on STAT3 versus STAT1 or STAT5” value (STAT3 [2]) was “stronger selective inhibitory action on STAT3 than on STAT1 or STAT5”. The “inhibitory action on Src family kinase Lyn” value (Src family kinase Lyn) was “did not exert an inhibitory action” and the “expression of STAT92E (luciferase assay)” value (STAT92E) was “effectively inhibited the expression of STAT92E”.
